Experimental data reported in patent US20220296584A1, “Membrane Active Molecules” (priority 2017, published 2022).
Where two headings read alike, the source gives them in different places.

Columns and labels:
[1] = tested on: Tadpoles; assay: Tadpole movement suppression (anesthetic efficacy); type: in vivo
Protocol: Tadpoles were placed in a petri dish containing aquarium water. Four to eight tadpoles were placed in each petri dish. The aquarium water contained the specified test compound at the listed concentration. When the tadpoles stopped moving, a plastic rod was used to elicit motion once again by contact between the rod and tadpole. […] From this and the number of subjects, the percent of tadpoles in which movement was suppressed were calculated.
After 1 to 30 minutes, they were again contacted with a rod to ensure the anesthetic effect had worn off
In some examples, subanesthetic concentrations of ethanol were added into the aquarium water. Tadpoles in which movement was prevented with exposure to a test compound and ethanol but not with exposure to a test compound alone were classified as partial anesthetics.

[2] = tested on: mice; conditions: intravenously
[3] = Concentration (mM): 125 + 150 EtOH
[4] = Concentration (mM): 250 + 150 EtOH
[5] = Concentration (mM): 50 + 150 EtOH
[6] = Concentration (mM): 20 + 150 EtOH
[7] = Concentration (mM): 25 + 150 EtOH
[8] = Concentration (mM): 100 + 150 EtOH
[9] = Concentration (mM): 12.5 + 150 EtOH

## CCC(O)C(=O)O (stereo not shown) [2-Hydroxybutyric acid, 2-hydroxybutyric acid]
[1]; Concentration (mM): 125
  Movement suppressed (%): 0%
[1]; [3]
  Movement suppressed (%): 86%

## O=C(O)CCC(=O)C(=O)O [2-Oxoglutaric acid]
[1]; Concentration (mM): 200 + 150 EtOH
  Movement suppressed (%): 86%
[1]; [4]
  Movement suppressed (%): 100%

## CC(C)(C)CC(=O)O [3,3-Dimethylbutyric acid, 3,3-Dimethylbutanoic acid]
[1]; Concentration (mM): 25
  Movement suppressed (%): 100%

## CC(C)(O)CC(=O)O [3-Hydroxy-3-methylbutyric acid, 3-Hydroxy-3-methylbutanoic acid]
[1]; Concentration (mM): 1.6
  Movement suppressed (%): 0%
[1]; Concentration (mM): 6.25
  Movement suppressed (%): 0%
[1]; Concentration (mM): 25
  Movement suppressed (%): 0%
[1]; [5]
  Movement suppressed (%): 100%
[1]; Concentration (mM): 100
  Movement suppressed (%): 100%

## CCC(C)C(=O)C(=O)O (stereo not shown) [3-Methyl-2-oxovaleric acid, 3-Methyl-2-oxopentanoic acid]
[1]; Concentration (mM): 250
  Movement suppressed (%): 33%

## Cc1cccc(C(=O)NCC(=O)O)c1 [3-Methylhippuric acid, (3-Methylbenzoyl)glycine]
[1]; Concentration (mM): 3.125
  Movement suppressed (%): 0%
[1]; Concentration (mM): 3.125 + 150 EtOH
  Movement suppressed (%): 100%

## CCC(C)CC(=O)O (stereo not shown) [3-Methylvaleric acid, 3-Methylpentanoic acid]
[1]; Concentration (mM): 20
  Movement suppressed (%): 25%
[1]; [6]
  Movement suppressed (%): 66%

## CC(=O)CCCC(=O)O [4-Acetylbutyric acid, 5-Oxohexanoic acid]
[1]; Concentration (mM): 25
  Movement suppressed (%): 0%
[1]; [7]
  Movement suppressed (%): 80%

## Cc1ccc(C(=O)NCC(=O)O)cc1 [4-Methylhippuric acid, (4-Methylbenzoyl)glycine]
[1]; [7]
  Movement suppressed (%): 33%
[1]; Concentration (mM): 50
  Movement suppressed (%): 0%
[1]; [5]
  Movement suppressed (%): 100%
[1]; Concentration (mM): 150 EtOH (no test compound concentration printed)
  Movement suppressed (%): 0%

## CC(C)CCC(=O)O [4-Methylvaleric acid]
[1]; Concentration (mM): 20
  Movement suppressed (%): 0%
[1]; [6]
  Movement suppressed (%): 100%

## O=C(O)CCCCC(=O)O [Adipic acid, Hexanedioic acid]
[1]; Concentration (mM): 50
  Movement suppressed (%): 0%
[1]; [5]
  Movement suppressed (%): 83%

## C[C@H](N)C(=O)O [Alanine]
[1]; Concentration (mM): 62.5 + 150 EtOH
  Movement suppressed (%): 20%
[1]; [3]
  Movement suppressed (%): 80%

## O=C(NC(O)C(=O)O)c1ccccc1 (stereo not drawn) [Alpha-Hydroxyhippuric acid, 2-Benzamido-2-hydroxyacetic acid]
[1]; Concentration (mM): 5
  Movement suppressed (%): 33%
[1]; Concentration (mM): 5 + 20 EtOH
  Movement suppressed (%): 66%
[1]; Concentration (mM): 10
  Movement suppressed (%): 100%

## N=C(N)NCCC[C@H](N)C(=O)O [Arginine]
[1]; Concentration (mM): 46.5
  Movement suppressed (%): 0%
[1]; Concentration (mM): 192 + 150 EtOH
  Movement suppressed (%): 83%

## C[N+](C)(C)CCO [Choline]
[1]; Concentration (mM): 46 + 150 EtOH
  Movement suppressed (%): 0%
[1]; [8]
  Movement suppressed (%): 40%
[1]; Concentration (mM): 120 + 150 EtOH
  Movement suppressed (%): 66%

## CC(C)(C(=O)O)C(=O)O [Dimethylmalonic acid]
[1]; Concentration (mM): 125
  Movement suppressed (%): 60%
[1]; Concentration (mM): 250
  Movement suppressed (%): 60%

## CCO [Ethanol control, ethanol, reference compound]
[1]; Concentration (mM): 100
  Movement suppressed (%): 0%
[1]; Concentration (mM): 150
  Movement suppressed (%): 0%
[1]; Concentration (mM): 200
  Movement suppressed (%): 0%
[1]; Concentration (mM): 250
  Movement suppressed (%): 33%

## N[C@@H](CCC(=O)O)C(=O)O [Glutamate, Glutamic acid]
[1]; [5]
  Movement suppressed (%): 100%

## NC(=O)CC[C@H](N)C(=O)O [Glutamine]
[1]; Concentration (mM): 25
  Movement suppressed (%): 0%
[1]; Concentration (mM): 50
  Movement suppressed (%): 100%
[1]; Concentration (mM): 100
  Movement suppressed (%): 100%

## O=C(O)CCCC(=O)O [Glutaric acid]
[1]; Concentration (mM): 7.8
  Movement suppressed (%): 0%
[1]; Concentration (mM): 31
  Movement suppressed (%): 0%
[1]; Concentration (mM): 125
  Movement suppressed (%): 0%
[1]; [3]
  Movement suppressed (%): 60%

## O=C(O)Cc1c[nH]c2ccccc12 [Indole-3-acetic acid, 2-(1H-indol-3-yl)acetic acid]
[1]; Concentration (mM): 12.5
  Movement suppressed (%): 0%
[1]; [9]
  Movement suppressed (%): 100%

## CC[C@H](C)[C@H](N)C(=O)O [Isoleucine]
[1]; Concentration (mM): 25
  Movement suppressed (%): 0%
[1]; [8]
  Movement suppressed (%): 60%

## CC(C)C(C(=O)O)C(=O)O [Isopropyl malonic acid, 2-isopropylmalonic acid]
[1]; Concentration (mM): 1.6
  Movement suppressed (%): 0%
[1]; Concentration (mM): 6.25
  Movement suppressed (%): 0%
[1]; Concentration (mM): 25
  Movement suppressed (%): 50%
[1]; [7]
  Movement suppressed (%): 40%

## O=C(O)c1cc(O)c2ccccc2n1 [Kynurenic acid, 4-hydroxyquinoline-2-carboxylic acid]
[1]; Concentration (mM): 12.5
  Movement suppressed (%): 0%
[1]; [9]
  Movement suppressed (%): 100%

## NC(=O)C[C@H](N)C(=O)O [L-Asparagine, Asparagine]
[1]; Concentration (mM): 100
  Movement suppressed (%): 0%
[1]; [8]
  Movement suppressed (%): 66%

## N[C@@H](CO)C(=O)O [L-Serine, Serine]
[1]; Concentration (mM): 114
  Movement suppressed (%): 0%
[1]; Concentration (mM): 229 + 150 EtOH
  Movement suppressed (%): 60%
[1]; Concentration (mM): 300 + 150 EtOH
  Movement suppressed (%): 100%

## CC(C)[C@H](N)C(=O)O [L-valine, Valine]
[1]; Concentration (mM): 7.8
  Movement suppressed (%): 0%
[1]; Concentration (mM): 31
  Movement suppressed (%): 0%
[1]; Concentration (mM): 125
  Movement suppressed (%): 0%
[1]; Concentration (mM): 500
  Movement suppressed (%): 40%
[1]; Concentration (mM): 500 + 150 EtOH
  Movement suppressed (%): 100%

## CC(=O)CCC(=O)O [Levulinic acid, 4-oxopentanoic acid]
[1]; [8]
  Movement suppressed (%): 50%

## NCCCC[C@H](N)C(=O)O [Lysine]
[1]; [4]
  Movement suppressed (%): 50%

## O=C(O)C(O)c1ccccc1 (stereo not shown) [Mandelic acid, 2-Hydroxy-2-phenylacetic acid]
[1]; Concentration (mM): 250
  Movement suppressed (%): 0%
[1]; Concentration (mM): 300
  Movement suppressed (%): 100%
[1]; Concentration (mM): 500
  Movement suppressed (%): 100%

## CC(CC(=O)O)C(=O)O (stereo not shown) [Methylsuccinic acid]
[1]; [4]
  Movement suppressed (%): 43%

## O=C(O)CC(=O)C(=O)O [Oxaloacetic acid, 2-Oxosuccinic acid]
[1]; [3]
  Movement suppressed (%): 100%

## O=C(O)C(=O)Cc1ccccc1 [Phenylpyruvic acid, 2-Oxo-3-phenylpropanoic acid]
[1]; Concentration (mM): 62.5
  Movement suppressed (%): 100%
[1]; Concentration (mM): 125
  Movement suppressed (%): 100%

## O=C(O)[C@@H]1CCCN1 [Proline]
[1]; Concentration (mM): 103
  Movement suppressed (%): 0%
[1]; Concentration (mM): 411 + 150 EtOH
  Movement suppressed (%): 100%

## O=C(O)c1ccc2ccccc2n1 [Quinaldic acid, Quinoline-2-carboxylic acid]
[1]; Concentration (mM): 25
  Movement suppressed (%): 16%
[1]; [7]
  Movement suppressed (%): 60%

## C[C@@H](O)CC(=O)O [R-3-hydroxybutyric acid, (R)-3-Hydroxybutanoic acid]
[1]; Concentration (mM): 100
  Movement suppressed (%): 0%
[1]; Concentration (mM): 200
  Movement suppressed (%): 0%
[1]; Concentration (mM): 250
  Movement suppressed (%): 0%
[1]; Concentration (mM): 300
  Movement suppressed (%): 0%
[1]; Concentration (mM): 350
  Movement suppressed (%): 0%
[1]; Concentration (mM): 400
  Movement suppressed (%): 46%
[1]; Concentration (mM): 500
  Movement suppressed (%): 100%

## C[C@H](O)CC(=O)O [S-3-hydroxybutyric acid, (S)-3-Hydroxybutanoic acid]
[1]; Concentration (mM): 100
  Movement suppressed (%): 0%
[1]; Concentration (mM): 200
  Movement suppressed (%): 0%
[1]; Concentration (mM): 250
  Movement suppressed (%): 14%
[1]; Concentration (mM): 300
  Movement suppressed (%): 17%
[1]; Concentration (mM): 350
  Movement suppressed (%): 50%
[1]; Concentration (mM): 400
  Movement suppressed (%): 92%
[1]; Concentration (mM): 500
  Movement suppressed (%): 100%

## O=C(O)CCCCCCC(=O)O [Suberic acid, Octanedioic acid]
[1]; Concentration (mM): 10
  Movement suppressed (%): 50%

## N[C@@H](Cc1c[nH]c2ccccc12)C(=O)O [Tryptophan]
[1]; Concentration (mM): 12.5
  Movement suppressed (%): 0%
[1]; [9]
  Movement suppressed (%): 80%

## CCOC(=O)C(CC)C(=O)OCC [diethyl ethyl malonate, Diethyl ethyl malonate]
[2]; 62.5 mM solution in intralipid
  Observed effect on the animals: lethargic and those loss coordination
[2]; 250 mM solution in intralipid
  Lethality: lethal
[2]; 1M solution in intralipid
  Lethality: lethal

## Fumaric acid
[1]; Concentration (mM): 25
  Movement suppressed (%): 40%

## Guanidine
[1]; Concentration (mM): 62.5
  Movement suppressed (%): 0%

## Succinic acid
[1]; Concentration (mM): 62.5
  Movement suppressed (%): 0%

## Tartaric acid [L-Tartaric acid]
[1]; Concentration (mM): 50
  Movement suppressed (%): 0%
